The target of assay [1] is T1, TAP1/TAP2iso heterodimer (Homo sapiens, UniProt Q03518+Q03519).
T1 construct: expressed in transfected cells
T1 sequence (Q03519 1-653 isoform Q03519-2 L359K/V379I): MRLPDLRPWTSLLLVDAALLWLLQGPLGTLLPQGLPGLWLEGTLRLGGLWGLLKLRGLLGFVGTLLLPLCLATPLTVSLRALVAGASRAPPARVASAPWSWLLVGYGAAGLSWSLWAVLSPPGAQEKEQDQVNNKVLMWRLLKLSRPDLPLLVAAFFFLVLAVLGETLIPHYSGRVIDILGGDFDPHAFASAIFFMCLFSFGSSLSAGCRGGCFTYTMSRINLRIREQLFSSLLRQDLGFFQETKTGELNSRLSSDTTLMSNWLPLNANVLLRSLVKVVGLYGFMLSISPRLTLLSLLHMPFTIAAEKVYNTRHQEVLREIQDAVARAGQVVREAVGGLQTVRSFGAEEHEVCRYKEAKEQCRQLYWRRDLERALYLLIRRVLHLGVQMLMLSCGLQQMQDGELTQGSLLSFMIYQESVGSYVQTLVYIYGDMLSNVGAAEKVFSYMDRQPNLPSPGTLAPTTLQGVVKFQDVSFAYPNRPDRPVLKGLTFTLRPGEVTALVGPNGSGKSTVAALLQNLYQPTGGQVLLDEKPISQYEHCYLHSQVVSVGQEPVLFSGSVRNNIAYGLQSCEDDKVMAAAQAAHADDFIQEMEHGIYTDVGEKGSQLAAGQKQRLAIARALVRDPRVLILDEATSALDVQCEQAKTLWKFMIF
T1 sequence (Q03518 1-748): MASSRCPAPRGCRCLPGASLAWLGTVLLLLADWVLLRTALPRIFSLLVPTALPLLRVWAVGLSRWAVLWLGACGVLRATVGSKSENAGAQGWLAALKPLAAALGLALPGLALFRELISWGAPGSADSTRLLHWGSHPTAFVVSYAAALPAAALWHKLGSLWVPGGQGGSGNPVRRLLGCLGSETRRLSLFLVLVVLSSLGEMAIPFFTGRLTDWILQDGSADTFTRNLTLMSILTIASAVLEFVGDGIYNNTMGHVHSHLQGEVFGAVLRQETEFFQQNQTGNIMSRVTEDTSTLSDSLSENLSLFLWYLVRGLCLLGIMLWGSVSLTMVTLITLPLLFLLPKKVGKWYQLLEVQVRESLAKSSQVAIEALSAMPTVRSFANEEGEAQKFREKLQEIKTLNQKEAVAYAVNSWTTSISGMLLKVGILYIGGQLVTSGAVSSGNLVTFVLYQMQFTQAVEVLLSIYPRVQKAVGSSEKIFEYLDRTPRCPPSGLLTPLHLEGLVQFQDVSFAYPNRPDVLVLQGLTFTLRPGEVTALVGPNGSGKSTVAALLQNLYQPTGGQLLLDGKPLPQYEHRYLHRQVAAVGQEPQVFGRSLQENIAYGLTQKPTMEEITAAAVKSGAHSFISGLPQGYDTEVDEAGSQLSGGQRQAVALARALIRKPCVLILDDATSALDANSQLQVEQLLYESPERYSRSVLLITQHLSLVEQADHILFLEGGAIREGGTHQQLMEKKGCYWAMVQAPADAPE
Briefly: competition with transport of 125I-Peptide RRYQNSTEL in TAP1/TAP2iso transfectants. It counts as cell-based. Conditions: TAP1/TAP2iso transfectants. The protocol:
(§1) Glycosylated ^125 I Peptide […] (SEQ ID NO: 6), Peptide […] (SEQ ID NO: 7), or Peptide […] (SEQ ID NO: 8) was recovered and measured. The peptide translocation assay was performed essentially as previously described (Neefjes et al., Science, 261:769 (1993); and Momburg et al., J. Exp. Med., 179:1613 (1994)). Briefly, 2.5-5.0×10^6 T2 cell (transfected or untransfected) were washed once with incubation buffer (130 mM KCl, 10 mM NaCl, 1 mM CaC2, 2 mM EDTA, 2 mM MgCl2, 5 mM Hepes, pH 7.3) and permeabilized for 10 minutes at 37° C. with streptolysin O (2 IU/ml) (Wellcome, Beckenham, UK) in 50 μl of incubation buffer. After further addition of 10 μl of 100 mM adenosine triphosphate, 10 μl of ^125 I-labeled peptide (~15 pM), and 30 μl of incubation buffer, cells were incubated for an additional 10 minutes at 37° C. Transport was terminated by the addition of 1 ml of 1% NP-40 detergent, after which nuclei were removed by centrifugation and glycosylated peptides were recovered using concanavalin A-Sepharose (Sigma, St. Louis, Mo.) and quantitated with a gamma counter (LKB-Wallac).
Differential peptide selectivity of the TAP1/TAP2 and TAP1/TAP2iso heterodimers was further investigated by competition experiments with ^125 I-labeled Peptide […] (SEQ ID NO: 6) and various unlabeled peptides: Peptide […] (SEQ ID NO: 6); Peptide […] (SEQ ID NO: 7); Peptide […] (SEQ ID NO: 8); Peptide […] (SEQ ID NO: 9), the S1-24 fragment of human adrenocorticotropic hormone); and Peptide […] (SEQ ID NO: 10), residues 22 to 30 (human insulin B chain). The iodinated 9-mer Peptide […] was translocated in the presence of different concentrations of unlabeled competition peptides. The glycosylated peptides were recovered by Con A-Sepharose and quantitated. […] (self); (6B) competition of ^125 I-Peptide […] with Peptide […]; (6C) competition of ^125 I-Peptide […] with Peptide […]; and (6D) competition of ^125 I-Peptide […] with Peptide […]; and (6E) competition of ^125 I-Peptide […] with Peptide […].

Assay [2] deals with T2, TAP1/TAP2 heterodimer (Homo sapiens, UniProt Q03518+Q03519).
T2 sequence (Q03518 1-748): T1 sequence (Q03518 1-748)
T2 sequence (Q03519 1-686 L359K/V379I): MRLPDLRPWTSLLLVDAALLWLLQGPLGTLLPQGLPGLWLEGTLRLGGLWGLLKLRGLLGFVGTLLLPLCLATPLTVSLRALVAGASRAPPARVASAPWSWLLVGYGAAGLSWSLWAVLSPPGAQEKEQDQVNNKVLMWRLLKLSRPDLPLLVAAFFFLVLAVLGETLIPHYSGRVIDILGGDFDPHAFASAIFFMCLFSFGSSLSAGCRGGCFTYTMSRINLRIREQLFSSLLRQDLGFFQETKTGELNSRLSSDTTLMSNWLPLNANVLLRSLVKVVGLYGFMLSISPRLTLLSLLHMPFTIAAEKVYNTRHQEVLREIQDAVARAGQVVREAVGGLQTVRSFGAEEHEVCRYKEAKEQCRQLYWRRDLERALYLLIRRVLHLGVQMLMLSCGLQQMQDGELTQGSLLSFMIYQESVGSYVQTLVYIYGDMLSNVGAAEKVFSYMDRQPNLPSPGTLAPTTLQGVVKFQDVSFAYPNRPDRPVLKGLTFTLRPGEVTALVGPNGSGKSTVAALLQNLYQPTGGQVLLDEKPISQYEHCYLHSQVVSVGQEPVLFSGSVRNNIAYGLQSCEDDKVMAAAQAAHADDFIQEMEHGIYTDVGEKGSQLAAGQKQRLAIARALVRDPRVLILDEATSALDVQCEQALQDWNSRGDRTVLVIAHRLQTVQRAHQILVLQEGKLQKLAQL
Briefly: competition with transport of 125I-Peptide RRYQNSTEL in TAP1/TAP2 transfectants. Format: cell-based. Here is the method: as §1
Differential peptide selectivity of the TAP1/TAP2 and TAP1/TAP2iso heterodimers was further investigated by competition experiments with ^125 I-labeled Peptide […] (SEQ ID NO: 6) and various unlabeled peptides: Peptide […] […] The glycosylated peptides were recovered by Con A-Sepharose and quantitated. […]

Assay [3] deals with T1 cells (naturally co-express both TAP2 and TAP2iso). Conditions: in words.
Assay [4] concerns TAP1/TAP2iso heterodimer (compared with TAP1/TAP2). Briefly: translocation of 125I-labeled peptides into the ER of permeabilized T2 transfectants. It counts as cell-based, human. Conditions: 125I-labeled glycosylated peptide recovered from streptolysin O permeabilized T2 transfectants; comparison in words. The protocol:
10 mM stock solutions of peptides were prepared in dimethyl sulfoxide. Peptides (25 μg) were directly iodinated at unique tyrosine residues with the use of chloramine T (Sigma, St. Louis, Mo.), and free iodine was removed by gel filtration using Sephadex G 10 (Pharmacia) column chromatography.
as §1

In assay [5] the test system is HLA class I (A2) on T2 cells. Briefly: restoration of surface expression of HLA class I (A2) on transfected T2 cells, flow cytometry. Format: cell-based, human. Conditions: T2 cells transfected with the named cDNAs. Here is the method:
Plasmid DNAs were prepared using MAXI-PREP kits (Qiagen). TAP1- and TAP2-deficient T2 cells (donated by P. Cresswell, Howard Hughes Medical Institute, Yale University) (1-2×10^7 cells/ml) were transfected by electroporation with 10 μg of TAP1 and TAP2 or TAP2iso linear plasmid DNA in a 0.4-cm cuvette at 260 V and 960 μF. Subcloning and selection of transfectants were performed by culturing in the presence of hygromycin (250 μg/ml) or histidinol ([…]) for the PREP 4 and PREP8 vectors, respectively.
Immune complexes were detected with fluorescein isothiocyanate-conjugated goat anti-mouse IgG antibodies (Coulter, Hialeah, Fla.) and an Epics Elite flow cytometer (Coulter).
T2 cells were transfected with TAP1 cDNA in combination with TAP2 or TAPiso cDNAs as described above.

Assay [6] relates to HLA class I molecules in T2 cells. Briefly: HLA class I maturation, endo H sensitivity, pulse-chase in transfected T2 cells. It counts as cell-based, human. Conditions: expressed with TAP1 in T2 cells, relative to untransfected T2 cells.
Description: A preferred method of measuring the rate at which MHC class I antigen complexes exit the ER is through the quantification of MHC class I proteins of the Golgi apparatus sensitive to endoglycosidase H (endo H). Glycosylation of MHC class I proteins in the Golgi apparatus results in an increase in their molecular mass and an increase in resistance of MHC class I-linked glycans to endo H. By [^35 S]methionine pulse-labeling TAP- or TAPiso-expressing cell cultures and chasing with unlabeled methionine at various times, the rate of MHC class I maturation in the ER can be gauged by observing differences in endo H sensitivity, e.g., compared with a TAP-deficient cell line such as T2.
High density cells (1×10^8 cells/ml) were labeled for 15 minutes in the presence of 500 μCi [^35 S]methionine (Amersham), and then chased at the indicated times in the presence of 10 mM unlabeled methionine.
Cells were lysed in an ice-cold lysis buffer, and lysates were incubated overnight at 4° C. with protein A Sepharose beads (Pharmacia) and normal rabbit serum (1:200 dilution). The beads were removed by centrifugation and the resulting supernatant was incubated for 12 hours at 4° C. with protein A beads and monoclonal antibody W6/32 (American Type Culture Collection (ATCC) accession no. HB 95), which recognizes HLA class I molecules. […]
Where [7] appears, read: unlabeled peptide against transport of 125I-Peptide RRYQNSTEL, read-out: median inhibitory concentration (IC50).

“Also recorded” adds a separate entry of the source.

Experimental findings from patent publication US6284879A, “Transport associated protein splice variants” (The General Hospital Corporation, priority 1998, dated 2001) are described below.

Take RRYQNSTEL [Peptide RRYQNSTEL]: the IC50 in assay [1] (setting [7]) and in assay [2] (setting [7]) was around 150 nM in each case. Also, in assay [3], the “transportation of test peptides (relative IC50)” value is “equal efficiency”. For the same molecule, in assay [4], the “amount of translocated peptide, TAP1/TAP2iso compared with TAP1/TAP2” value is “transported to similar extents; also recorded: translocated with equal efficiency”.

Take SYSMEHGRWGKPVGKKRRPVKVYP: the “inhibition of transport of Peptide RRYQNSTEL” value in assay [1] (in words) and in assay [2] (in words) was “did not inhibit” in each case.

B1: TAP2iso: TAP2 splice variant lacking exon 11 and containing exon 12; 653 amino acids (protein)
chain: T1 sequence (Q03519 1-653 isoform Q03519-2 L359K/V379I)
In the case of B1, the “surface expression of HLA/MHC class I” value in assay [5] (in words) is “no effect”. In assay [6], the “HLA class I maturation as reflected in decreasing endo H sensitivity” value is reported as “increasing HLA class I maturation”.

B2: TAP2: previously known TAP2 subunit (clone 0121, TAP2 F allele) (protein)
chain: T2 sequence (Q03519 1-686 L359K/V379I)
As for B2, the “Mean fluorescence of HLA class 1 (A2) Mean ± SD” value in assay [5] (four separate experiments, at least three stable clones) is reported as 6.11 ± 1.09. For the same molecule, in assay [6], the “HLA class I maturation as reflected in decreasing endo H sensitivity” value is “increasing HLA class I maturation”.
